According to US6441021B1, “Sulfonated amino acid derivatives and metalloproteinase inhibitors containing the same” (Shionogi & Co., Ltd., priority 1996, dated 2002):
Where two headings read alike, the source gives them in different places.

Experiments:
[1] = biological target: T1, MMP-9 (92 kDa, gelatinase B; type IV collagenase) (Homo sapiens, UniProt P14780); experiment: Assay of type IV collagenase inhibitors: activated MMP-9 with type IV collagenase activity kit substrate, fluorescent intensity; format: biochemical
T1 construct: endogenous in cells; enzyme purified from the conditioned medium
T1 sequence (P14780 107-707 limits assumed): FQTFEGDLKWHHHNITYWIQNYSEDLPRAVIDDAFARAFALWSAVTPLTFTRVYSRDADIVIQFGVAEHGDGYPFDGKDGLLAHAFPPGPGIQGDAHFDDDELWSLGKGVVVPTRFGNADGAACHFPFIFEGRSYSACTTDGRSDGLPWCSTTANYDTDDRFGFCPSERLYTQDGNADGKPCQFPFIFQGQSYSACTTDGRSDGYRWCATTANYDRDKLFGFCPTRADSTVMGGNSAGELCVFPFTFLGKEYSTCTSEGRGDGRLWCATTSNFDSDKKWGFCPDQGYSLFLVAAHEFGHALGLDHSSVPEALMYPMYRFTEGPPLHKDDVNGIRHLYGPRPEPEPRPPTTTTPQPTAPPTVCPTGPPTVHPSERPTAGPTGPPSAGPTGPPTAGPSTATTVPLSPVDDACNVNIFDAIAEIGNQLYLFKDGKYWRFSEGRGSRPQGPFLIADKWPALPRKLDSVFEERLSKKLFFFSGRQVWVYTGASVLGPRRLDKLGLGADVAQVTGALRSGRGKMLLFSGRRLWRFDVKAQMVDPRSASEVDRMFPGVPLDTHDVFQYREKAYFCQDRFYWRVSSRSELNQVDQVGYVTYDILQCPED
Method: (1) Isolation and Purification of MMP-9 (92 kDa, Gelatinase B)
Type IV collagenase (MMP-9) was purified according to the methods descrived in the following literature.
Subsequently, activated MMP-9 was obtained by treating the pro-MMP-9 with trypsin.
(2) Assay Methods of Type IV Collagenase Inhibitors
Collagenase assay was performed using the activated MMP-9 described above and the substrate supplied in the type IV collagenase activity kit (YAGAI, inc.), according to the manufacturer's protocol. The following 4 assays are performed per compound (inhibitor).
(A) substrate (type IV collagenase), enzyme (MMP-9), inhibitor
(B) substrate (type IV collagenase), inhibitor
(C) substrate (type IV collagenase), enzyme (MMP-9)
(D) substrate (type IV collagenase)
According to the manufacturer's protocol, fluorescent intensity was measured and percent inhibition was determined by the following equation.
Inhibition (%)={1−(A−B)/(C−D)}×100

**Q.** For `CC(C)[C@@H](NS(=O)(=O)c1ccc(NC(=O)c2ccc(Br)cc2)cc1)C(=O)O` [Example 202], which melting point is on record?
**A.** The melting point was 229 to 230 °C.

**Q.** What about the IC50 [1] of the same compound?
**A.** Its IC50 is 11.4 nM.

**Q.** Which results are given for `Cc1cnc(C(=O)Nc2ccc(S(=O)(=O)N[C@H](Cc3ccccc3)C(=O)O)cc2)cn1` [Example 204]?
**A.** melting point: 236 to 237 °C; IC50 [1]: 3950 nM

**Q.** What does the source list for `Cn1cc(CC(NS(=O)(=O)c2ccc(-c3nnn(-c4ccccc4)n3)cc2)C(=O)O)c2ccccc21` (stereo not drawn) [Example 212]?
**A.** melting point: 199 to 202 °C; IC50 [1]: 393 nM

**Q.** For `O=C(O)C(Cc1c[nH]c2ccc(F)cc12)NS(=O)(=O)c1ccc(-c2nnn(-c3ccccc3)n2)cc1` (stereo not drawn) [Example 213], which melting point is on record?
**A.** The melting point was 224 to 225 °C.

**Q.** What about the IC50 [1] of the same compound?
**A.** The IC50 was 128 nM.

**Q.** For `CC(C)C[C@@H](NS(=O)(=O)c1ccc(-c2nnn(-c3ccccc3)n2)cc1)C(=O)O` [Example 214], which melting point is on record?
**A.** Its melting point is 202 to 204 °C.

**Q.** What about the IC50 [1] of the same compound?
**A.** Its IC50 is 832 nM.

**Q.** Which melting point does the source give for `CC(C)[C@@H](NS(=O)(=O)c1ccc(-c2nnn(-c3ccccc3)n2)cc1)C(=O)O` [Example 215] here?
**A.** Its melting point is 221 to 222 °C.

**Q.** And the IC50 ([1]; inhibition of type IV collagenase (MMP-9), concentration at which percent inhibition reaches 50%)?
**A.** The IC50 was 110 nM.

**Q.** For `Cc1cccc2[nH]cc(CC(NS(=O)(=O)c3ccc(-c4nnn(-c5ccccc5)n4)cc3)C(=O)O)c12` (stereo not drawn) [Example 216], which melting point is on record?
**A.** Its melting point is 145 to 148 °C.

**Q.** What about the IC50 [1] of the same compound?
**A.** The IC50 was 107 nM.

**Q.** With `CCC(C)[C@@H](NS(=O)(=O)c1ccc(-c2nnn(-c3ccccc3)n2)cc1)C(=O)O` (stereo partly drawn) [Example 221] as the compound, how does the melting point read?
**A.** The melting point was 205 to 207 °C.

**Q.** And the IC50 [1]?
**A.** Its IC50 is 316 nM.

**Q.** Which melting point does the source give for `CC(C)[C@@H](NS(=O)(=O)c1ccc(-c2nnn(-c3ccc(O)cc3)n2)cc1)C(=O)O` [Example 223] here?
**A.** Its melting point is 190 °C (dec.).

**Q.** What about the IC50 [1] of the same compound?
**A.** Its IC50 is 349 nM.

**Q.** What does the source list for `COc1ccc(-n2nnc(-c3ccc(S(=O)(=O)N[C@@H](C(=O)O)C(C)(C)C)cc3)n2)cc1` [Example 226]?
**A.** melting point: 204 to 207 °C; IC50 [1]: 166 nM

**Q.** Which melting point does the source give for `O=C(O)[C@@H](Cc1c[nH]c2ccccc12)NS(=O)(=O)c1ccc(-c2nnn(-c3ccc(F)cc3)n2)cc1` [Example 227] here?
**A.** Its melting point is 203 to 205 °C.

**Q.** What about the IC50 [1] of the same compound?
**A.** Its IC50 is 19.8 nM.

**Q.** For `O=C(O)[C@@H](Cc1ccccc1)NS(=O)(=O)c1ccc(-c2nnn(-c3ccc(C(F)(F)F)cc3)n2)cc1` [Example 229], which melting point is on record?
**A.** The melting point was 197 to 198 °C.

**Q.** And the IC50 [1]?
**A.** Its IC50 is 215 nM.

**Q.** What does the source list for `CC(C)(C)c1ccc(-n2nnc(-c3ccc(S(=O)(=O)N[C@H](Cc4ccccc4)C(=O)O)cc3)n2)cc1` [Example 236]?
**A.** melting point: 224 to 226 °C; IC50 [1]: 304 nM

**Q.** For `O=C(O)[C@@H](Cc1ccccc1)NS(=O)(=O)c1ccc(-c2nnn(-c3ccc(Oc4ccccc4)cc3)n2)cc1` [Example 238], which melting point is on record?
**A.** Its melting point is 182 to 184 °C.

**Q.** What about the IC50 [1] of the same compound?
**A.** Its IC50 is 2850 nM.

**Q.** For `O=C(O)[C@@H](Cc1ccccc1)NS(=O)(=O)c1ccc(-c2nnn(-c3ccc(O)cc3)n2)cc1` [Example 239], which melting point is on record?
**A.** The melting point was 226 to 228 °C.

**Q.** What about the IC50 [1] of the same compound?
**A.** The IC50 was 243 nM.

**Q.** Which melting point does the source give for `CC(C)[C@@H](NS(=O)(=O)c1ccc(-c2nnn(-c3ccc(Cl)cc3)n2)cc1)C(=O)O` [Example 244] here?
**A.** Its melting point is 223 to 225 °C.

**Q.** What about the IC50 [1] of the same compound?
**A.** The IC50 was 16.5 nM.

**Q.** With `CC(C)[C@H](C(=O)NO)N(C)S(=O)(=O)c1ccc(Oc2ccccc2)cc1` [Example 253] as the compound, how does the melting point read?
**A.** The melting point was 110 to 111 °C.

**Q.** What about the IC50 [1] of the same compound?
**A.** The IC50 was 0.039 nM.

**Q.** For `CC(C)[C@H](C(=O)NO)N(Cc1ccccc1)S(=O)(=O)c1ccc(Oc2ccccc2)cc1` [Example 254], which melting point is on record?
**A.** The melting point was 148 to 150 °C.

**Q.** What about the IC50 [1] of the same compound?
**A.** The IC50 was 0.63 nM.

**Q.** With `CC(C)[C@H](C(=O)O)N(C)S(=O)(=O)c1ccc(-c2nnn(-c3ccccc3)n2)cc1` [Example 256] as the compound, how does the melting point read?
**A.** The melting point was 206 to 207 °C.

**Q.** And the IC50 [1]?
**A.** Its IC50 is 601 nM.

**Q.** For `CC(C)C[C@H](C(=O)O)N(C)S(=O)(=O)c1ccc(-c2nnn(-c3ccccc3)n2)cc1` [Example 257], which melting point is on record?
**A.** The melting point was 132 to 132.5 °C.

**Q.** What about the IC50 [1] of the same compound?
**A.** Its IC50 is 776 nM.

**Q.** What does the source list for `CSc1ccc(-c2ccc(S(=O)(=O)N(C)[C@@H](C(=O)O)C(C)C)s2)cc1` [Example 259]?
**A.** melting point: 141 to 144 °C; IC50 [1]: 130 nM
